Measurements: patent publication US6043037A, “Rapid method for measuring clastogenic fingerprints using fluorescence in situ hybridization” (The Regents of the University of California, priority 1997, dated 2000)

Columns and labels:
human lymphocytes [1] = assay: S ratio measured by FISH in lymphocytes of humans exposed in vivo (benzene workers, tritium worker)
Description: Except where noted, all data analyzed were obtained using FISH. Identification and scoring of chromosome exchange aberrations using chromosome painting to generate additional data employed the methods of J. M. Lucas, et al., Rapid translocation frequency analysis in humans decades after exposure to ionizing radiation, Int'l. […] The chromosome exchange aberrations scored here were apparently simple (AS) exchange-type painting patterns.
The pattern resembles that of translocations. An incomplete apparently simple (AS) translocation pattern resembles that of an incomplete reciprocal translocation where the solid painted fragment contains one centromere. These aberrations are those translocations where reciprocity of the exchange event is not registered, either because the exchanged is actually incomplete, or because one of the exchanges segments involves the extreme, unpainted, terminal part of the arm.
Incomplete apparently simple translocations were recognized as bicolor chromosome derivatives, where the centromere resides on the unpainted segment.
Where possible, data were combined, and in some cases, additional scoring was performed to improve statistics. The blind scoring of coded photomicrographs was performed by technicians unfamiliar with the project goal. Photomicrographs were either reanalyzed from previous studies, or new photomicrographs were analyzed for this study.
The significance estimate for testing the equality of S-ratios between any two populations compared here was calculated by a likelihood ratio test using a Generalized Linear Model (GLM) on two nested hypotheses. The four outcomes were assumed to be distributed as independent Poisson random variates with a logarithmic link function. The null hypothesis included terms for offset, population and outcome type. The alternative included an additional interaction term. […]

human lymphocytes [2] = assay: S ratio (apparently simple translocations / incompletes) measured by FISH after in vitro exposure to clastogenic agents; format: cell-based
Experimental: Identification and scoring of chromosome exchange aberrations was performed using FISH as described in Lucas, et al., Rapid translocation frequency analysis in humans decades after exposure to ionizing radiationi, Int'l. J. Radiat. Biol., 62:53-63 (1992). The scoring criteria used (apparently […] exchange-type painting pattern) was equivalent to those described in Simpson, et al. Estimating the true frequency of X-ray-induced complex chromosome exchanges using fluorescence in situ hybridization, Int'l. J. Radiat. Biol., 67:37-45 (1995). Only apparently simple translocations (ASTs) and dicentrics (ASD's) were used to calculate F ratios because equality for translocations and dicentrics has been shown only for AST's and ASD's mathematically (Lucas, et al., Int'l. J. Radiat. Biol., 69:145-153 (1996) and experimentally (Simpson, et al., Int'l. J. Radiat. Biol., 67:37-45 (1995); Kovacs et al., Radiation Research, 137:34-43. (1994). The translocation frequency measured by FISH was scaled to full-genome equivalents using the formula in Lucas, et al., Int'l. J. Radiat. Biol., 62:53-63 (1992), herein by reference. In brief, the formula relates the translocation frequency measured by FISH, Fp, to the genomic translocation frequencies, FG, through the fraction of the genome covered by the probes, fp, as follows:
Cells were irradiated with ^60 Co and ^137 Cs gamma rays in order to produce aberrations and detect the frequency of their occurance. Irradiation of cells with ^60 Co and ^137 Cs gamma rays has been described elsewhere. Lucas, J. N., et al., Rapid determination of human chromosome translocation frequency using a pair of chromosome-specific DNA probes, Int'l. J. Radiat. Biol., 56:35-44 (1989). […]
Except where noted, all data analyzed were obtained using FISH. […] The chromosome exchange aberrations scored here were apparently simple (AS) exchange-type painting patterns. Simpson, P. J. and Savage, J. R. K., Estimating the true frequency of X-ray-induced complex chromosome exchanges using fluorescence in situ hybridization, Int'l. […]

[3] = 20 benzene workers with history of benzene poisoning, 18,583 cells
[4] = in vitro exposure, 1800 cells (bleomycin), 5,809 cells (tritium, 0.6 Gy)

## c1ccccc1 [Benzene, benzene]
Human lymphocytes [1]; [3]
  ASTs (apparently simple / complete translocations): 50
  Inc (incomplete apparently simple translocations): 25
Human lymphocytes [1]; benzene workers, vs low-LET radiation
  S ratio compared with low-LET radiation: significantly lower than those measured for low-LET radiation

## bleomycin
Human lymphocytes [2]; [4]
  ASTs (apparently simple translocations): 49
  Inc (incomplete apparently simple translocations): 21
Human lymphocytes [2]; in vitro, vs low-LET radiation
  S ratio compared with low-LET radiation: significantly lower than those measured for low-LET radiation
